Assay results reported in patent US20260125357A1, “LACTATE ENHANCING COMPOUNDS AND USES THEREOF” (GLIAPHARM SA, priority 2022, published 2026).
pEC50: −log10 of the molar value.

Experiments:
primary astrocytes = assay: Extracellular medium acidification (SNARF5) assay in astrocytes; format: cell-based; conditions: Mus musculus, Astrocyte; astrocytes in vitro; compounds 10 nM to 30 μM; read-out: Activity (EC50 class, extracellular medium acidification SNARF5)
Description: To assess for the effect of the compounds of the invention, those were tested in primary mouse astrocytes and astrocytes differentiated from human-derived induced pluripotent stem cells (iPSCs). Secretion of lactate was measured indirectly through the acidification of extracellular medium using extracellular pH sensor SNARE-5F-(AND-6)-CAR (SNARF5) as described below.
Primary cultures of cerebrocortical astrocytes were obtained from 1 to 2-day-old OF1 mouse pups (Charles River Laboratories). Briefly, cortices were isolated and minced in small pieces under a dissecting microscope. The cells were incubated for 30 min at 37° C. in a solution containing 20 U/ml papain, 1 mM L-cysteine and 10 kU/ml DNase I. After dissociation, papain activity was stopped by the addition of fetal calf serum (FCS). Single-cell suspension was then obtained by mechanical dissociation, which consisted in cells trituration in a DMEM D7777 medium supplemented with 44 mm NaHCO3, 10 ml/L antibiotic/antimycotic solution and 10% FCS. The cells were seeded at an average density of ˜10′000 cells/cm^2 on poly-D-lysine coated 96- or 12-well culture plates, depending on their use, and grown in DMEM D7777 medium supplemented with 44 mm NaHCO3, 10 ml/L antibiotic/antimycotic solution and 10% FCS at 37° C. in a humidified atmosphere containing 5% CO2/95% air. Culture medium was renewed twice a week. Cells were stimulated and harvested between DIV14 and DIV17, when confluence and cell growth were optimal.
Secretion of lactate was measured indirectly through the acidification of extracellular medium using extracellular pH sensor SNARF-5F-(AND-6)-CAR (SNARF5). After washing cells twice with stimulation medium (DMEM (D5030, Sigma), 1 mM […], and 5 mM Glucose, pH 7.4) at 37° C., cells were stimulated with compounds at a final concentration ranging from 10 nM to 30 μM in 50 μl per well of stimulation medium supplemented with 10 μM of SNARF5 (Life Technologies Corporation). Each compound was tested in two different plates for duplicates. After 30, 60 and 90 min stimulation, fluorescence was read at exc. (excitation) 480 nm/emm. (emission) 580 nm and at exc 480 nm/emm. 630 nm. The ratio of fluorescence between 630 nm and 580 emission values, which is proportional to extracellular pH, was calculated. In each plate, 8 wells were used for negative controls (DMSO 0.1%) and 8 wells were used for positive controls (CCCP 2 μM in DMSO). Results are shown as % of positive control effect (0% and 100% being activities of the Veh and positive control, respectively).

[1] = system: mice injected with streptozotocin; assay: Novel Object Recognition in streptozotocin ICV injection model of Alzheimer's disease; format: in vivo, mouse; conditions: 1 day after training, vs Veh
Description: Craniotomies are performed on isoflurane-anesthetized mice for injections of Veh or streptozotocin in cerebral ventricles (coordinates: −0.5 mm (to bregma), lateral+/−1.0 mm (to midline), ventral −2.2 mm (to dura)) (Kelliny S. et al., Molecular Neurobiology, 2021). A solution composed of Veh (0.9% NaCl) or streptozotocin (5 mg/kg) prepared in 1 μl artificial cerebrospinal fluid solution (aCSF, 20 mM citrate buffer, pH 4.2) is injected in both cerebral ventricles using Hamilton micro syringe at a constant speed of 100-200 nl/min. After injection, skin of the skull is sutured, and mice is monitored closely and receives analgesic treatment for at least 4 days. After mice had fully recovered from surgery, memory tests including Morris Water Maze (MWM), Inhibitory Avoidance (IA) and Novel Object Recognition (NOR), as described below, are performed. […]
Novel object recognition (NOR) is a well-established protocol to evaluate recognition memory in rodent models. […] During the acquisition period, time spent exploring and number of contacts with each object are recorded. […] The time of exploration and number of contacts with each object are recorded. The activity is recorded automatically using automated tracking software (Ethovision).

[2] = system: Wild-type (WT) and GLUT1-DS transgenic mice; assay: Grip strength test in WT and GLUT1-DS transgenic mice; format: in vivo, mouse; conditions: 10 mg/kg, after rotarod session
Description: Heterozygous transgenic mice on 129/SvJ genetic background in which glucose transporter 1 (GLUT1) has been knocked down were used (GLUT1(+/−)) (Wang et al., 2016, Human Molecular Genetics, 15(7)). GLUT1-deficiency syndrome (GLUT1-DS) is a prototypic hypometabolic diseases caused by the mutation of GLUT1 and decreased levels of glucose and lactate in the brain (Tang et al., 2019, Annals of Clinical and Translational Neurology 6(9)). Mating colonies were composed of wild-type female mice and GLUT1-DS male mice, or GLUT1-DS female mice and wild-type male mice. F1 pups were genotyped after ear punching at weaning using PCR to determine genotype. Mice of 2 to 3 months of age were used.
Motor strength was measured on the grip strength test (Bioseb) after rotarod session. Wild-type (WT) and GLUT1-DS transgenic mice were placed with 4 paws on the grid and maximal grip strength was recorded over 2 sessions with 5 minutes apart. Maximal grip strength over the 2 sessions was recorded.

COc1cc2ccnc(Nc3ccc(S(C)(=O)=O)cc3)c2cc1OC [Compound 2, 6,7-dimethoxy-N-(4-methylsulfonylphenyl)isoquinolin-1-amine]
pEC50 (primary astrocytes): > 6.00
memory in the Novel object recognition ([1]; 10 mg/kg): significantly higher
memory in the Novel object recognition ([1]; 30 mg/kg): significantly higher
muscle strength (grip strength) [2]: did not lead to any difference on muscle strength
